Numbered stars: 1 amine (or outer) side, 2 acyl side, 3 side chain; on linkers, the order of the positions; unused ones are H or OH. Square brackets hold non-standard residues; d marks the D form. Side chains are listed from the residue outwards. Peptide text beside a SMILES is read from it. * marks the point of attachment. C20 diacid = O=C(O)CCCCCCCCCCCCCCCCCCC(=O)*; γGlu = O=C(O)[C@H](CCC(=O)[*:2])N[*:1]; αMeY = C[C@](N)(Cc1ccc(O)cc1)C(=O)O; αMeL = CC(C)C[C@](C)(N)C(=O)O; Orn = NCCC[C@H](N)C(=O)O; Dap = NC[C@H](N)C(=O)O; AEEA = NCCOCCOCC(=O)O; Aib = CC(C)(N)C(=O)O
How the values were obtained:
[1] = target: human GLP-1 receptor (GLP-1R) (Homo sapiens, UniProt P43220); test: cAMP pharmacological functional assay in presence of casein, hGLP-1R; assay type: cell-based; settings: HEK293 cells expressing hGLP-1R, 0.1% Casein, geometric mean; read-out: hGLP1R cAMP Rel EC50 nM (SEM, n)
[2] = target: T1, gastric inhibitory peptide receptor (GIPR) (Homo sapiens, UniProt P48546); test: cAMP pharmacological functional assay in presence of casein, hGIPR; assay type: cell-based; settings: HEK293 cells expressing hGIPR, 0.1% Casein, geometric mean; read-out: hGIPR cAMP Rel EC50 nM (SEM, n)
T1 sequence (P48546 22-466): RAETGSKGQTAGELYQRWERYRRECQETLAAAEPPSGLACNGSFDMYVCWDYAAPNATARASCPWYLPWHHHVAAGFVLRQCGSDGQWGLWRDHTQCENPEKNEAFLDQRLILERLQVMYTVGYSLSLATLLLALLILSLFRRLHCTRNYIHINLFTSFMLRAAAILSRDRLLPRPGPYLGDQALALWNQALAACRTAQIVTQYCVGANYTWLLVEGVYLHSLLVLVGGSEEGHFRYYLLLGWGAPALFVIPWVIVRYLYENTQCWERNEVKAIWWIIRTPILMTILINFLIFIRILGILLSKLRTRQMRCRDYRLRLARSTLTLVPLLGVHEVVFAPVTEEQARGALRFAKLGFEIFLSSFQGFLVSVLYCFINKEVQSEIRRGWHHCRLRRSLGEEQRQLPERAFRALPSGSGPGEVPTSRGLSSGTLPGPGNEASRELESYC

human GLP-1R [3] = target: T2, human GLP-1R (Homo sapiens, UniProt P43220); test: GLP-1R CHO cell β-arrestin recruitment assay; assay type: cell-based; set-up: host or cells: CHO-K1 PathHunter cells, assay-ready frozen; settings: for EC50: CHO-K1 cells, PathHunter β-arrestin-2 recruitment, 0.1% casein, read-out: hGLP1R B-Arrestin2 Rel EC50 uM (SEM, n); for hGLP1R B-Arrestin2 % Top: normalized to GLP-1 maximum control
Method in brief: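 Peptide-induced β-arrestin-2 recruitment measured by enzyme-fragment complementation luminescence after 90 min at 37 °C plus 60 min detection at RT.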

human GLP-1R [4] = target: T2, human GLP-1R; test: GLP-1R HEK293 cell membrane [35S]GTPγS binding assay; assay type: biochemical; set-up: expressed in transfected cells; host or cells: HEK293 cells expressing human GLP-1R; membranes; settings: HEK293 cell membranes expressing human GLP-1R, [35S]GTPγS binding; read-out: hGLP1R GTPgS Rel EC50 nM (SEM, n)
Method in brief: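 Agonist-driven Gαs activation read as [35S]GTPγS ([…]) binding to receptor-expressing HEK293 membranes, 30 min at room temperature, pH 7.4. Detection by anti-Gαs immunocapture on scintillation beads; EC50 derived from four-parameter logistic concentration-response fit.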

T2 sequence (P43220 24-463): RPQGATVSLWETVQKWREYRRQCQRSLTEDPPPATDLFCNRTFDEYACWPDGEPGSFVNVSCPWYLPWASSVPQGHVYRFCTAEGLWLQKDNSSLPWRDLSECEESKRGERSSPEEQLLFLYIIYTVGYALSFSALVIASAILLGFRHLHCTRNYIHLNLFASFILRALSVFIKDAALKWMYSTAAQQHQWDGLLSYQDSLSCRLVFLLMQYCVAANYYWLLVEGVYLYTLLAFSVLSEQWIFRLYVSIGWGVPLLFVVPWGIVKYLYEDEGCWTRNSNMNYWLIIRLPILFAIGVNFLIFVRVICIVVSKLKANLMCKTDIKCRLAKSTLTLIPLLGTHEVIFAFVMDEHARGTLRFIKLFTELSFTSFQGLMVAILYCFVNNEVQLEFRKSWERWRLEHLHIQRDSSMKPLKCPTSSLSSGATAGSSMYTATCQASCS
human GLP-1 receptor (GLP-1R), sequence (P43220 24-463): as above

SMILES	EC50 [1] [nM]	EC50 [2] [nM]	EC50 (human GLP-1R [3]) [µM]	hGLP1R B-Arrestin2 % Top (human GLP-1R [3]) [%]	EC50 (human GLP-1R [4]) [nM]
CC[C@H](C)[C@H](NC(=O)[C@H](CC(C)C)NC(=O)[C@H](Cc1ccc(O)cc1)NC(=O)[C@H](CCC(=O)O)NC(=O)[C@@H](NC(=O)[C@H](Cc1ccccc1)NC(=O)[C@H](CCC(=O)O)NC(=O)C(C)(C)NC(=O)[C@H](CCC(N)=O)NC(=O)[C@H](C)NC(=O)[C@H](CCCCNC(=O)COCCOCCNC(=O)COCCOCCNC(=O)CC[C@H](NC(=O)CCCCCCCCCCCCCCCCCCC(=O)O)C(=O)O)NC(=O)[C@H](CN)NC(=O)[C@H](CC(=O)O)NC(=O)[C@H](CC(C)C)NC(=O)[C@](C)(CC(C)C)NC(=O)[C@@H](NC(=O)[C@H](CO)NC(=O)[C@H](Cc1ccc(O)cc1)NC(=O)[C@H](CC(=O)O)NC(=O)[C@H](CO)NC(=O)[C@@H](NC(=O)[C@H](Cc1ccccc1)NC(=O)[C@@H](NC(=O)CNC(=O)[C@H](CCC(=O)O)NC(=O)C(C)(C)NC(=O)[C@H](N)Cc1ccc(O)cc1)[C@@H](C)O)[C@@H](C)O)[C@@H](C)CC)[C@@H](C)CC)C(=O)N[C@@H](C)C(=O)NCC(=O)NCC(=O)N1CCC[C@H]1C(=O)N[C@@H](CO)C(=O)N[C@@H](CO)C(=O)NCC(=O)N[C@@H](C)C(=O)N1CCC[C@H]1C(=O)N1CCC[C@H]1C(=O)N1CCC[C@H]1C(=O)N[C@@H](CO)C(N)=O [Example 351] (H-[dY][Aib]EGTFTSDYSI[αMeL]LD[Dap]K([AEEA-AEEA-γGlu-C20 diacid])AQ[Aib]EFIEYLIAGGPSSGAPPPS-NH2)	0.149	0.298	0.0196	23.5	0.563
CC[C@H](C)[C@H](NC(=O)[C@H](CC(C)C)NC(=O)[C@H](Cc1ccc(O)cc1)NC(=O)[C@@H](CCC(=O)O)NC(=O)[C@@H](NC(=O)[C@H](Cc1ccccc1)NC(=O)[C@H](CCC(=O)O)NC(=O)C(C)(C)NC(=O)[C@H](CCC(N)=O)NC(=O)[C@H](C)NC(=O)[C@H](CCCCNC(=O)COCCOCCNC(=O)COCCOCCNC(=O)CC[C@H](NC(=O)CCCCCCCCCCCCCCCCCCC(=O)O)C(=O)O)NC(=O)[C@H](CCCCN)NC(=O)[C@H](CC(=O)O)NC(=O)[C@H](CC(C)C)NC(=O)[C@](C)(CC(C)C)NC(=O)[C@@H](NC(=O)[C@H](CO)NC(=O)[C@H](Cc1ccc(O)cc1)NC(=O)[C@H](CC(=O)O)NC(=O)[C@H](CO)NC(=O)[C@@H](NC(=O)[C@H](Cc1ccccc1)NC(=O)[C@@H](NC(=O)CNC(=O)[C@H](CCC(=O)O)NC(=O)C(C)(C)NC(=O)[C@H](N)Cc1ccc(O)cc1)[C@@H](C)O)[C@@H](C)O)[C@@H](C)CC)[C@@H](C)CC)C(=O)N[C@@H](CCC(=O)O)C(=O)NCC(=O)NCC(=O)N1CCC[C@H]1C(=O)N[C@@H](CO)C(=O)N[C@@H](CO)C(=O)NCC(=O)N[C@@H](C)C(=O)N1CCC[C@H]1C(=O)N1CCC[C@H]1C(=O)N1CCC[C@H]1C(=O)N[C@@H](CO)C(N)=O [Example 353] (H-[dY][Aib]EGTFTSDYSI[αMeL]LDKK([AEEA-AEEA-γGlu-C20 diacid])AQ[Aib]EFI[dE]YLIEGGPSSGAPPPS-NH2)	1.09	0.497	0.559	23.0	1.96
CC[C@H](C)[C@H](NC(=O)[C@H](CC(C)C)NC(=O)[C@H](Cc1ccc(O)cc1)NC(=O)[C@@H](CCC(=O)O)NC(=O)[C@@H](NC(=O)[C@H](Cc1ccccc1)NC(=O)[C@H](CCC(=O)O)NC(=O)C(C)(C)NC(=O)[C@H](CCC(N)=O)NC(=O)[C@H](C)NC(=O)[C@H](CCCCNC(=O)COCCOCCNC(=O)COCCOCCNC(=O)CC[C@H](NC(=O)CCCCCCCCCCCCCCCCCCC(=O)O)C(=O)O)NC(=O)[C@H](CCCN)NC(=O)[C@H](CC(=O)O)NC(=O)[C@H](CC(C)C)NC(=O)[C@](C)(CC(C)C)NC(=O)[C@@H](NC(=O)[C@H](CO)NC(=O)[C@H](Cc1ccc(O)cc1)NC(=O)[C@H](CC(=O)O)NC(=O)[C@H](CO)NC(=O)[C@@H](NC(=O)[C@H](Cc1ccccc1)NC(=O)[C@@H](NC(=O)CNC(=O)[C@H](CCC(=O)O)NC(=O)C(C)(C)NC(=O)[C@H](N)Cc1ccc(O)cc1)[C@@H](C)O)[C@@H](C)O)[C@@H](C)CC)[C@@H](C)CC)C(=O)N[C@@H](CCC(=O)O)C(=O)NCC(=O)NCC(=O)N1CCC[C@H]1C(=O)N[C@@H](CO)C(=O)N[C@@H](CO)C(=O)NCC(=O)N[C@@H](C)C(=O)N1CCC[C@H]1C(=O)N1CCC[C@H]1C(=O)N1CCC[C@H]1C(=O)N[C@@H](CO)C(N)=O [Example 355] (H-[dY][Aib]EGTFTSDYSI[αMeL]LD[Orn]K([AEEA-AEEA-γGlu-C20 diacid])AQ[Aib]EFI[dE]YLIEGGPSSGAPPPS-NH2)	0.896	0.685	0.363	18.3	1.76
CC[C@H](C)[C@H](NC(=O)[C@H](CC(C)C)NC(=O)[C@](C)(Cc1ccc(O)cc1)NC(=O)[C@H](CCC(=O)O)NC(=O)[C@@H](NC(=O)[C@H](Cc1ccccc1)NC(=O)[C@H](C)NC(=O)C(C)(C)NC(=O)[C@H](CCC(N)=O)NC(=O)[C@H](C)NC(=O)[C@H](CCCCNC(=O)COCCOCCNC(=O)COCCOCCNC(=O)CC[C@H](NC(=O)CCCCCCCCCCCCCCCCCCC(=O)O)C(=O)O)NC(=O)[C@H](CCCCN)NC(=O)[C@H](CC(=O)O)NC(=O)[C@H](CC(C)C)NC(=O)[C@](C)(CC(C)C)NC(=O)[C@@H](NC(=O)[C@H](CO)NC(=O)[C@H](Cc1ccc(O)cc1)NC(=O)[C@H](CC(=O)O)NC(=O)[C@H](CO)NC(=O)[C@@H](NC(=O)[C@H](Cc1ccccc1)NC(=O)[C@@H](NC(=O)CNC(=O)[C@H](CCC(=O)O)NC(=O)C(C)(C)NC(=O)[C@H](N)Cc1ccc(O)cc1)[C@@H](C)O)[C@@H](C)O)[C@@H](C)CC)[C@@H](C)CC)C(=O)N[C@@H](C)C(=O)NCC(=O)NCC(=O)N1CCC[C@H]1C(=O)N[C@@H](CO)C(=O)N[C@@H](CO)C(=O)NCC(=O)N[C@@H](C)C(=O)N1CCC[C@H]1C(=O)N1CCC[C@H]1C(=O)N1CCC[C@H]1C(=O)N[C@@H](CO)C(N)=O [Example 365] (H-[dY][Aib]EGTFTSDYSI[αMeL]LDKK([AEEA-AEEA-γGlu-C20 diacid])AQ[Aib]AFIE[αMeY]LIAGGPSSGAPPPS-NH2)	0.175	0.0678	0.00703	20.8	0.464
CC[C@H](C)[C@H](NC(=O)[C@H](CC(C)C)NC(=O)[C@](C)(Cc1ccc(O)cc1)NC(=O)[C@H](CCC(=O)O)NC(=O)[C@@H](NC(=O)[C@H](Cc1ccccc1)NC(=O)[C@H](C)NC(=O)C(C)(C)NC(=O)[C@H](CCC(N)=O)NC(=O)[C@H](C)NC(=O)[C@H](CCCCNC(=O)COCCOCCNC(=O)COCCOCCNC(=O)CC[C@H](NC(=O)CCCCCCCCCCCCCCCCCCC(=O)O)C(=O)O)NC(=O)[C@H](CCCN)NC(=O)[C@H](CC(=O)O)NC(=O)[C@H](CC(C)C)NC(=O)[C@](C)(CC(C)C)NC(=O)[C@@H](NC(=O)[C@H](CO)NC(=O)[C@H](Cc1ccc(O)cc1)NC(=O)[C@H](CC(=O)O)NC(=O)[C@H](CO)NC(=O)[C@@H](NC(=O)[C@H](Cc1ccccc1)NC(=O)[C@@H](NC(=O)CNC(=O)[C@H](CCC(=O)O)NC(=O)C(C)(C)NC(=O)[C@H](N)Cc1ccc(O)cc1)[C@@H](C)O)[C@@H](C)O)[C@@H](C)CC)[C@@H](C)CC)C(=O)N[C@@H](C)C(=O)NCC(=O)NCC(=O)N1CCC[C@H]1C(=O)N[C@@H](CO)C(=O)N[C@@H](CO)C(=O)NCC(=O)N[C@@H](C)C(=O)N1CCC[C@H]1C(=O)N1CCC[C@H]1C(=O)N1CCC[C@H]1C(=O)N[C@@H](CO)C(N)=O [Example 366] (H-[dY][Aib]EGTFTSDYSI[αMeL]LD[Orn]K([AEEA-AEEA-γGlu-C20 diacid])AQ[Aib]AFIE[αMeY]LIAGGPSSGAPPPS-NH2)	0.366	0.0889	0.00557	21.2	0.409
